Results as given in patent publication US4992450A, “Piperidine opioid antagonists” (Eli Lilly and Company, priority 1989, dated 1991).
Counter-ions that a name gives are not always drawn. Like-named read-outs stand apart in the source and are kept apart here.

What was measured:
mu receptor [1] = target: T1, mu receptor (Rattus norvegicus, UniProt P33535); assay: Opioid receptor binding displacement assay, mu site (rat whole brain minus cerebellum, 3H ligand); parameters: species or system Male Sprague Dawley rats
T1 construct: rat whole brain minus cerebellum for mu and delta sites; from tissue; host or cells: rat whole brain minus cerebellum, frozen pellet fraction
Description: (§1) This assay was conducted by the following procedure.
(§2) Male Sprague Dawley rats for mu and delta site experiments and male Hartley guinea pigs for kappa site experiments were sacrificed via decapitation and the brains were removed. The brain tissue, rat whole brain minus cerebellum for mu and delta sites and guinea pig cortex for the kappa site, was homogenized in a Teflon and glass tissue homogenizer. A supernatant I, pellet IV, fraction was frozen in a nitrogen freezer at 1.33 g/ml concentration and stored for not longer than five weeks prior to use. Pellets were rehydrated with physiological buffer prior to use.
(§3) The reaction was initiated by the addition of the rehydrated tissue which has been preincubated at 37° C. for 20 minutes. The reaction mixture was incubated in a 37° C. water bath for 20 minutes. The reaction was terminated by rapid filtration, (Amicon vacuum manifolds), through Whatman GF/C glass filters that had been presoaked in Krebs-Hepes buffer pH 7.4. The filters were then washed 2× with 5 ml of ice cold Krebs-Hepes buffer pH 7.4. Washed filters were placed in scintillation vials and 10 ml PCS, (Amersham), was added and samples counted in a Searle D-300 beta counter. Means and standard error statistics were calculated for triplicate experimental determinations in certain cases. The procedure was slightly modified for the kappa site. The tissue was pretreated with 100 nM concentrations of mu and delta receptor site blockers. The incubation time for the reaction mixture was 45 minutes at 37° C.

kappa receptor [2] = target: T2, kappa receptor (Cavia porcellus, UniProt P41144); assay: Opioid receptor binding displacement assay, kappa site (guinea pig cortex, 3H ligand); parameters: species or system male Hartley guinea pigs
T2 construct: guinea pig cortex for the kappa site; from tissue; host or cells: guinea pig cortex, frozen pellet fraction
Description: as §1, §2, §3

mu receptor [3] = target: T3, mu receptor (Mus musculus, UniProt P42866); assay: Mouse writhing assay, antagonism of morphine analgesia (mu); assay type: in vivo, CF-1 male mice; details: sc, read-out: Mu AD50
T3 construct: Five CF-1 male mice (Charles River, Portage, Mich.); from tissue; host or cells: whole living CF-1 male mice (in vivo)

kappa receptor [4] = target: T4, kappa receptor (Mus musculus, UniProt P33534); assay: in vivo; parameters: species or system CF-1 male mice; details: sc, read-out: Kappa AD50
T4 construct: Five CF-1 male mice (Charles River, Portage, Mich.); from tissue; host or cells: whole living CF-1 male mice (in vivo)

kappa receptors = target: T5, kappa receptors (Rattus norvegicus, UniProt P34975); assay: Rat diuresis assay, antagonism of bremazocine-induced urination; assay type: in vivo, male Long-Evans hooded rats; details: sc, rats, s.c., urinary output reduced to 50% of effect of 0.08 mg/kg bremazocine alone
T5 construct: sixty male Long-Evans hooded rats; from tissue; host or cells: whole living male Long-Evans hooded rats (in vivo)
Description: As such, the compounds of the invention were also evaluated in a rat diuresis assay conducted according to the following procedure described by Leander et al. in Drug Development Research 4:421-427 (1984) in an effort to further establish the ability of the present compounds to block kappa receptors.
According to this procedure, sixty male Long-Evans hooded rats (Charles River Breeding Laboratories, Portage, Mich.) weighing between about 300 and 500 grams each were housed either individually or in pairs in a temperature-controlled (23° C.) colony room which was illuminated between 6:00 A.M. and 6:00 P.M. Rodent chow and tap water were continuously available except during the measurement of urine output. The animals were used repeatedly, but no more frequently than twice a week.
The animals were then injected with various doses of the test compounds. To measure urine output, the animals were removed from the home cages, weighed, injected and placed in metabolism cages for 5 hr. Excreted urine was funneled into graduated cylinders. Cumulative urine volumes were determined at designated time intervals, usually at 2 and 5 hr after injection.
The compounds which are salt forms were dissolved in distilled water. If necessary, the compounds were dissolved in distilled water with the aid of either a few drops of lactic acid or hydrochloric acid and gentle warming. All injections were s.c. in a volume of 1 ml/kg of body weight. During tests for antagonism, two injections were given, one on each side of the body.
In the Table, column 1 provides the Example Number of the compound tested; column 2, the amount of compound in mg/kg necessary to reduce the urinary output to 50% of the effect produced by 0.08 mg/kg of bremazocine alone two hours after injection of bremazocine and the test compound; and column 3, the amount of compound in mg/kg necessary to reduce the urinary output to 50% of the effect produced by 0.08 mg/kg of bremazocine alone five hours after injection of bremazocine and the test compound.

[5] = test system: meal fed obese Zucker rats; assay: Food consumption assay in meal fed obese Zucker rats; assay type: in vivo; details: Rattus norvegicus, sc, 4 h, amount to decrease food consumption 20% during first four hours
Description: The following assay was employed to evaluate the ability of the compounds of the invention to effect food and water consumption of meal fed obese Zucker rats.
According to this procedure, 3-4 month old obese Zucker rats were trained to eat food daily from 8:00 A.M. to 4:00 P.M. only, such that the body weight gain approximates that if the rats were fed ad libitum. These rats were allowed to consume water at all times. Four groups of rats with four rats in each group, two female and two male, were formed. One group served as control for the other three groups each day. Each of the other groups were given a subcutaneous dose of the compound to be evaluated. The test compound was formulated in physiological saline containing 10% dimethylsulfoxide by volume.
Animals remained drug free for 4 days before the next test. Food and water consumption of each rat were measured for the first four hours. A test on one compound was run for three consecutive days. The drug effect was expressed as the percent of the control for that test day.
In the Table, column 1 gives the Example Number of the compound evaluated; and column 2 provides the ED20 in mg/kg, wherein ED20 represents the amount of compound evaluated in mg/kg necessary to decrease food consumption 20% during the first four hours of the experiment.

[6] = rat brain minus cerebellum, pH 7.4, 37° C., 20 minutes, read-out: Ki Mu
[7] = guinea pig cortex, pH 7.4, 37° C., 45 minutes, mu and delta sites blocked (100 nM), read-out: Ki Kappa
[8] = 2 h, two hours after injection, read-out: AD50 Two Hours
[9] = 5 h, five hours after injection, read-out: AD50 Five Hours

T3 sequence (P42866 whole entry): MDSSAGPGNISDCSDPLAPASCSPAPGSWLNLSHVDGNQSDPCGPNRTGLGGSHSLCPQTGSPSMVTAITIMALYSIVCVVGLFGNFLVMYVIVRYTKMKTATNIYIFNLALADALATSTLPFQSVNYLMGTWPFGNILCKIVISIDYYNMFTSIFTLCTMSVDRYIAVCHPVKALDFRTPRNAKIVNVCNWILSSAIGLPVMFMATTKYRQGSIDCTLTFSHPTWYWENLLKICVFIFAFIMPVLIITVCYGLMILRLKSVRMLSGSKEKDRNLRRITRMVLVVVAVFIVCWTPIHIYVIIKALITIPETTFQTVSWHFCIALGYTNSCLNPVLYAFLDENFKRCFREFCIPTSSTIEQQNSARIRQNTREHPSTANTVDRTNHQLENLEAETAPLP
T5 sequence (P34975 whole entry): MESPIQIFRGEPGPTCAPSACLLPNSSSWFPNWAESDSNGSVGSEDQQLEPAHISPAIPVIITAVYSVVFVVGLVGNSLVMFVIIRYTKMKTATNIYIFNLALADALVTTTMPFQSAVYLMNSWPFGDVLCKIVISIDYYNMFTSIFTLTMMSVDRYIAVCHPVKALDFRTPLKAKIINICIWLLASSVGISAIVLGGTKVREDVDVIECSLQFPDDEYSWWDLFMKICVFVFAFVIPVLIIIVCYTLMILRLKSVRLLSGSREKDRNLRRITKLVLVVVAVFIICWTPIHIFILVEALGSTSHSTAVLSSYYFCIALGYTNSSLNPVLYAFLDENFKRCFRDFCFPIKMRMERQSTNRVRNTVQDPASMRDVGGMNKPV
T1 sequence (P33535 whole entry): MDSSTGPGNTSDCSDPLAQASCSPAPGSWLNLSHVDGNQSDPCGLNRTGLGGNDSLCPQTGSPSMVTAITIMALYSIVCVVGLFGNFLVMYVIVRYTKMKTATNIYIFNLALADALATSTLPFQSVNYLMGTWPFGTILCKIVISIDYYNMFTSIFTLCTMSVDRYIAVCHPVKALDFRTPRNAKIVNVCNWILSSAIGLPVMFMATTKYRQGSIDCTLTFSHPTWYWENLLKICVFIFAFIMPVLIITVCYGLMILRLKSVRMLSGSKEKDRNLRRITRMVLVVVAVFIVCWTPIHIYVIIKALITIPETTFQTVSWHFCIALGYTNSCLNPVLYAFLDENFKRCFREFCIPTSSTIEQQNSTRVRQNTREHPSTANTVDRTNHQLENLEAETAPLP
T2 sequence (P41144 whole entry): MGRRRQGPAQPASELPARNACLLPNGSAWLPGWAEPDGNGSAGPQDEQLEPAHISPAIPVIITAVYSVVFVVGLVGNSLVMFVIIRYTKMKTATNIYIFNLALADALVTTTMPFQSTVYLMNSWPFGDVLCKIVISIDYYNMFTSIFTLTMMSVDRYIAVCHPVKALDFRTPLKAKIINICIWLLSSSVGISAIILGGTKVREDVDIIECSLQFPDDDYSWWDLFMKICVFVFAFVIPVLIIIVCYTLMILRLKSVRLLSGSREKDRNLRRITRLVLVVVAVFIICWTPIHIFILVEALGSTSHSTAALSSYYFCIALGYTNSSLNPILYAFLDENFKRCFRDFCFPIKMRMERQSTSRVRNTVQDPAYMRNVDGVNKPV
T4 sequence (P33534 whole entry): as the sequence (P34975 whole entry) above, with E11D, A17S, P51S, V308A counted along it

## C[C@H]1CN(CCC(O)c2ccccc2)CC[C@@]1(C)c1cccc(O)c1 (relative stereo) [Compound A, 4β-(3-Hydroxyphenyl)-3β,4α-dimethyl-α-phenyl-1-piperidinepropanol hydrochloride, reference compound]
Mu receptor [1]; [6]
  Ki: 1 nM
Kappa receptor [2]; [7]
  Ki: 22.7 nM
Mu receptor [3]
  ED50: 0.05 mg/kg
Kappa receptor [4]
  ED50: 0.92 mg/kg
Kappa receptors; [8]
  ED50: 4.09 mg/kg
Kappa receptors; [9]
  ED50: 2.65 mg/kg
[5]
  ED20: 0.55 mg/kg

## C[C@H]1CN(C)CC[C@@]1(C)c1cccc(O)c1 (relative stereo) [Compound B, 3-(1,3α,4β-Trimethyl-4α-piperidyl)phenol hydrochloride, reference compound]
Mu receptor [1]; [6]
  Ki: 80 nM
Mu receptor [3]
  ED50: 0.74 mg/kg
Kappa receptor [4]
  ED50: 2.5 mg/kg
[5]
  ED20: 3.99 mg/kg

## C[C@H]1CN(CCc2ccccc2)CC[C@@]1(C)c1cccc(O)c1 (relative stereo) [Compound D, 3-(3α,4β-Dimethyl-1-phenethyl-4α-piperidyl)phenol hydrochloride, reference compound]
Mu receptor [1]; [6]
  Ki: 1.2 nM
Kappa receptor [2]; [7]
  Ki: 51 nM
Mu receptor [3]
  ED50: 0.16 mg/kg
Kappa receptor [4]
  ED50: 1.38 mg/kg
[5]
  ED20: 0.94 mg/kg

## C[C@H]1CN(CCC2C=CCC2)CC[C@@]1(C)c1cccc(O)c1 (relative stereo) [Example 7, trans-(±)-1-[2-(2-Cyclopenten-1-yl)ethyl]-3,4-dimethyl-4-(3-hydroxyphenyl)piperidine hydrochloride]
Kappa receptor [2]
  Ki: 1.04 nM
Mu receptor [3]
  ED50: 0.11 mg/kg
Kappa receptor [4]
  ED50: 0.12 mg/kg
Kappa receptors; [8]
  ED50: 1.3 mg/kg
Kappa receptors; [9]
  ED50: 1.38 mg/kg
[5]
  ED20: 0.34 mg/kg

## C[C@H]1CN(CCC(=O)C2CCCC2)CC[C@@]1(C)c1cccc(O)c1 (relative stereo) [Example 17, trans-(±)-1-(1-Cyclopentylpropanon-3-yl)-3,4-dimethyl-4-(3-hydroxyphenyl)piperidine hydrochloride]
Mu receptor [1]
  Ki: 0.84 nM
Kappa receptor [2]
  Ki: 0.55 nM
Mu receptor [3]
  ED50: 0.21 mg/kg
Kappa receptor [4]
  ED50: 0.19 mg/kg
[5]
  ED20: 0.31 mg/kg

## C[C@H]1CN(CCC(O)C2CCCCC2)CC[C@@]1(C)c1cccc(O)c1 (relative stereo) [Example 27, trans-(±)-1-[R,S-(3-Hydroxy-3-cyclohexylpropyl)]-3,4-dimethyl-4-(3-hydroxyphenyl)piperidine hydrochloride]
Mu receptor [1]; [6]
  Ki: 0.22 ± 0.03 nM
Kappa receptor [2]; [7]
  Ki: 5.04 ± 0.58 nM
Mu receptor [3]
  ED50: 0.07 mg/kg
Kappa receptor [4]
  ED50: 0.14 mg/kg
[5]
  ED20: 0.04 mg/kg

## COC(CCN1CC[C@@](C)(c2cccc(O)c2)[C@@H](C)C1)C1CCCCC1 (relative stereo) [Example 31, trans-(±)-1-[R,S-(3-Methoxy-3-cyclohexylpropyl)]-3,4-dimethyl-4-(3-hydroxyphenyl)piperidine hydrochloride]
Mu receptor [1]; [6]
  Ki: 0.77 nM
Kappa receptor [2]; [7]
  Ki: 3.82 nM
Mu receptor [3]
  ED50: 1.42 mg/kg
Kappa receptor [4]
  ED50: 0.44 mg/kg

## C[C@H]1CN(CCC(O)c2cccs2)CC[C@@]1(C)c1cccc(O)c1 (relative stereo) [Example 40, trans-(±)-1-[R,S-[3-Hydroxy-3-(2-thienyl)-propyl]-3,4-dimethyl-4-(3-hydroxyphenyl)piperidine hydrochloride]
Mu receptor [1]; [6]
  Ki: 0.5 nM
Mu receptor [3]
  ED50: 0.065 mg/kg
Kappa receptor [4]
  ED50: 0.14 mg/kg
Kappa receptors; [8]
  ED50: 3.78 mg/kg
Kappa receptors; [9]
  ED50: 1.44 mg/kg
[5]
  ED20: 0.11 mg/kg

## CC(C)CCCCN1CCC(C)(c2cccc(O)c2)C(C)C1 (stereo not drawn) [Example 4, trans-(±)-1-(5-Methylhexyl)-3,4-dimethyl-4-(3-hydroxyphenyl)piperidine hydrochloride]
Kappa receptor [2]; read-out: Ki Kappa, guinea pig cortex, pH 7.4, 37° C., 45 minutes, mu and delta sites blocked (100 nM)
  Ki: 6.04 ± 0.44 nM
Mu receptor [3]
  ED50: 0.35 mg/kg
Kappa receptor [4]
  ED50: 0.23 mg/kg
Kappa receptors; [8]
  ED50: 0.17 mg/kg
Kappa receptors; [9]
  ED50: 0.46 mg/kg
[5]
  ED20: 0.05 mg/kg

## CC1CN(CCC2CCCC2)CCC1(C)c1cccc(O)c1 (stereo not drawn) [Example 6, trans-(±)-1-(2-Cyclopentylethyl)-3,4-dimethyl-4-(3-hydroxyphenyl)piperidine hydrochloride]
Mu receptor [1]
  Ki: 0.94 nM
Mu receptor [3]
  ED50: 0.13 mg/kg
Kappa receptor [4]
  ED50: 0.22 mg/kg
Kappa receptors; [9]
  ED50: 0.67 mg/kg
[5]
  ED20: 0.33 mg/kg

## CC1CN(CC2CCCCC2)CCC1(C)c1cccc(O)c1 (stereo not drawn) [Example 10, trans-(±)-1-(Cyclohexylmethyl)-3,4-dimethyl-4-(3-hydroxyphenyl)piperidine hydrochloride]
Kappa receptor [2]
  Ki: 28.2 nM
Mu receptor [3]
  ED50: 0.46 mg/kg
Kappa receptor [4]
  ED50: 0.34 mg/kg
Kappa receptors; [8]
  ED50: 14.9 mg/kg
Kappa receptors; [9]
  ED50: 3.9 mg/kg
[5]
  ED20: 1.25 mg/kg

## CC1CN(CCCC2CCCCC2)CCC1(C)c1cccc(O)c1 (stereo not drawn) [Example 11, trans-(±)-1-(3-Cyclohexylpropyl)-3,4-dimethyl-4-(3-hydroxyphenyl)piperidine hydrochloride]
Kappa receptor [2]
  Ki: 2.34 nM
Mu receptor [3]
  ED50: 0.19 mg/kg
Kappa receptor [4]
  ED50: 0.35 mg/kg
Kappa receptors; [8]
  ED50: 1.9 mg/kg
Kappa receptors; [9]
  ED50: 1.02 mg/kg
[5]
  ED20: 0.15 mg/kg

## CC(C)CCN1CCC(C)(c2cccc(O)c2)C(C)C1 (stereo not drawn) [Example 16, trans-(±)-1-(3-Methylbutyl)-3,4-dimethyl-4-(3-hydroxyphenyl)piperidine hydrochloride]
Kappa receptor [2]
  Ki: 70.1 nM
Mu receptor [3]
  ED50: 0.87 mg/kg
Kappa receptor [4]
  ED50: 0.62 mg/kg
Kappa receptors; [8]
  ED50: 7.7 mg/kg
Kappa receptors; [9]
  ED50: 4.45 mg/kg
[5]
  ED20: > 20 mg/kg

## C=CCCCCN1CCC(C)(c2cccc(O)c2)C(C)C1 (stereo not drawn) [Example 21, trans-(±)-1-(5-n-Hexenyl)-3,4-dimethyl-4-(3-hydroxyphenyl)piperidine hydrochloride]
Mu receptor [1]
  Ki: 1.61 nM
[5]
  ED20: 9.37 mg/kg

## C[C@@H]1CN(CC[C@H](O)C2CCCCC2)CC[C@]1(C)c1cccc(O)c1 [Example 24, trans-(-)-1-[S-(3-Hydroxy-3-cyclohexylpropyl)]-3,4-dimethyl-4-(3-hydroxyphenyl)piperidine]
Mu receptor [1]; [6]
  Ki: 1.4 ± 0.61 nM
Kappa receptor [2]; [7]
  Ki: 11.4 ± 4.29 nM
Mu receptor [3]
  ED50: 0.05 mg/kg
Kappa receptor [4]
  ED50: 0.24 mg/kg
[5]
  ED20: 0.12 mg/kg

## C[C@@H]1CN(CC[C@@H](O)C2CCCCC2)CC[C@]1(C)c1cccc(O)c1 [Example 26, trans-(-)-1-[R-(3-Hydroxy-3-cyclohexylpropyl)]-3,4-dimethyl-4-(3-hydroxyphenyl)piperidine]
Mu receptor [1]
  Ki: 2.24 ± 0.17 nM
Mu receptor [3]
  ED50: 0.07 mg/kg
Kappa receptor [4]
  ED50: 0.52 mg/kg
[5]
  ED20: 0.35 mg/kg

## CC1CN(CCCc2ccsc2)CCC1(C)c1cccc(O)c1 (stereo not drawn) [Example 41, trans-(±)-1-[3-(3-Thienyl)propyl]-3,4-dimethyl-4-(3-hydroxyphenyl)piperidine hydrochloride]
Kappa receptor [2]
  Ki: 10.3 nM
Mu receptor [3]
  ED50: 0.12 mg/kg
Kappa receptor [4]
  ED50: 0.24 mg/kg
Kappa receptors; [8]
  ED50: 2.7 mg/kg
Kappa receptors; [9]
  ED50: 1.9 mg/kg
